Measured values published in article PMC7251097, “Aspartate/asparagine-β-hydroxylase: a high-throughput mass spectrometric assay for discovery of small molecule inhibitors” (Scientific Reports, 2020).
Where a name gives a salt, the structure may show the parent alone. Read-outs that look alike come from different tables or passages of the source.

Target: T1, His6-AspH315–758 (human aspartate/asparagine-β-hydroxylase, AspH) (Homo sapiens, UniProt Q12797)
T1 construct: N-Terminally His6-tagged human AspH315–758 (His6-AspH315–758) was produced in E. coli BL21 (DE3) cells; made in house; host or cells: E. coli BL21 (DE3), pET-28a(+) vector
T1 sequence (Q12797 315-758): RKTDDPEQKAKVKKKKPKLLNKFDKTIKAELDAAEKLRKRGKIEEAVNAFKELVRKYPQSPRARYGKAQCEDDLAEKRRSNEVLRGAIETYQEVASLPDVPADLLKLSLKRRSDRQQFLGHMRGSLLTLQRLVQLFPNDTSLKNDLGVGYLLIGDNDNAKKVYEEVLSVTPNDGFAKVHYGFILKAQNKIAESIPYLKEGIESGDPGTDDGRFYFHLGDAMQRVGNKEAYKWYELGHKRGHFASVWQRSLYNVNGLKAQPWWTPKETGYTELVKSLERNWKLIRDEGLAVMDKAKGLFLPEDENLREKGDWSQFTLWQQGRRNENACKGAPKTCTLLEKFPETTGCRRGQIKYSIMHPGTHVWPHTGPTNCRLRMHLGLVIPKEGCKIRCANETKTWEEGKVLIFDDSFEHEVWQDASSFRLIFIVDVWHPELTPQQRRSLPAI
Assay: SPE-MS AspH inhibition assay (LOPAC screen at fixed 20 μM and IC50 dose-response), hydroxylation of cyclic peptide hFX-CP101–119
Format: biochemical
Settings: for Plate 5 (% inhibition) / Plate 5 (% conversion): plate 5 (Pfitzer), test compounds at fixed 20 μM; for Plate 5 (% conversion): mean conversion DMSO 32.88

[1] = LOPAC compound at fixed 20 uM, plate 1, normalised to DMSO and 2,4-PDCA controls
[2] = LOPAC compound at fixed 20 uM, substrate conversion, plate 1
[3] = LOPAC Plate 4, compound at 20 uM, substrate conversion
[4] = LOPAC Plate 4, compound at 20 uM

SMILES	Plate 1 (% inhibition) [1] [%]	Plate 1 (% conversion) [2] [%]	further results
Cn1cnc([N+](=O)[O-])c1Sc1ncnc2nc[nH]c12 [Azathioprine]	-17.98	41.91	–
O=C(O)CCCCCCCC(=O)O [Azelaic acid]	11.13	32.14	–
CC[C@H]1OC(=O)[C@H](C)[C@@H](O[C@H]2C[C@@](C)(OC)[C@@H](O)[C@H](C)O2)[C@H](C)[C@@H](O[C@@H]2O[C@H](C)C[C@H](N(C)C)[C@H]2O)[C@](C)(O)C[C@@H](C)CN(C)[C@H](C)[C@@H](O)[C@]1(C)O [Azithromycin dihydrate]	-13.45	40.39	–
CC[C@H]1OC(=O)[C@H](C)[C@@H](O[C@H]2C[C@@](C)(OC)[C@@H](O)[C@H](C)O2)[C@H](C)[C@@H](O[C@@H]2O[C@H](C)C[C@H](N(C)C)[C@H]2O)[C@](C)(O)C[C@@H](C)CN(C)[C@H](C)[C@@H](O)[C@]1(C)O [Azithromycin]	–	–	Plate 5 (% inhibition): -3.13%; Plate 5 (% conversion): 37.38%
CCN1CCc2nc(N)oc2CC1.Cl.Cl [B-HT 933 dihydrochloride]	-9.80	39.16	–
COc1ccc(-c2cc3nccn3c(Nc3ncccc3C(N)=O)n2)cc1OC.Cl.O [BAY 61-3606 hydrochloride hydrate]	–	–	% conversion [3]: 33.04%
Nc1ccc(-c2ccc3ccccc3n2)cc1 [BF-170 hydrochloride]	–	–	% inhibition [4]: -2.46%; % conversion [3]: 37.31%
CC(=O)O[C@H]1Cc2ccccc2N(C(N)=O)c2ccccc21 [BIA 2-093]	–	–	% conversion [3]: 30.46%
COc1cc2nc(N3CCCN(C)CC3)nc(NC3CCN(Cc4ccccc4)CC3)c2cc1OC [BIX 01294 trihydrochloride hydrate]	–	–	% inhibition [4]: -9.31%; % conversion [3]: 39.65%
C[C@H](c1ccc(F)cc1CCCC(=O)O)N(c1cc(F)ccc1F)S(=O)(=O)c1ccc(Cl)cc1 [BMS-299897]	–	–	% inhibition [4]: -0.66%; % conversion [3]: 36.70%
COc1ccccc1N1CCN(CCN2C(=O)CC3(CCCC3)CC2=O)CC1.Cl.Cl [BMY 7378 dihydrochloride]	-11.73	39.81	–
COc1ccccc1N1CCN(CCCCNC(=O)c2ccc3ccccc3c2)CC1 [BP 897]	-9.00	38.89	–
C[C@H](Cc1ccc(OCC(=O)[O-])cc1)NC[C@H](O)c1cccc(Cl)c1.[Na+] [BRL 37344 sodium]	4.03	34.52	–
Cc1ccc([N+](=O)[O-])cc1S(=O)(=O)N(C)C [BRL 50481]	–	–	Plate 1 (% conversion): 38.84%; Plate 1 (% inhibition): -8.84%
CN1CCC(c2c[nH]c3ccc(O)cc23)CC1.O=C(O)/C=C\C(=O)O [BRL 54443 maleate]	–	–	Plate 1 (% conversion): 33.54%; Plate 1 (% inhibition): 6.94%
Cl.c1ccc2sc(C3(N4CCCCC4)CCCCC3)cc2c1 [BTCP hydrochloride]	–	–	Plate 1 (% conversion): 41.13%; Plate 1 (% inhibition): -15.64%
N#Cc1cc([N+](=O)[O-])c2sc(C(N)=O)[n+]([O-])c2c1 [BTO-1]	-2.18	36.60	–
Cl.c1ccc2nc(C3=NCCN3)ccc2c1 [BU224 hydrochloride]	-5.25	37.63	–
C=CC[N+](C)(C)c1ccc(CCC(=O)CCc2ccc([N+](C)(C)CC=C)cc2)cc1.[Br-].[Br-] [BW 284c51]	–	–	Plate 1 (% conversion): 38.38%; Plate 1 (% inhibition): -7.47%
CC(N)Cc1c[nH]c2ccc(OCc3cccs3)cc12 (centres unmarked) [BW 723C86]	–	–	Plate 3 (% conversion): 36.52%
CC(/C=C/c1cccc(Oc2ccc(F)cc2)c1)N(O)C(N)=O (centres unmarked) [BWB70C]	-3.19	36.94	–
Cc1ccc(S(=O)(=O)/C=C/C#N)cc1 [Bay 11-7082]	–	–	% conversion [3]: 24.61%
CC(C)(C)c1ccc(S(=O)(=O)/C=C/C#N)cc1 [Bay 11-7085]	–	–	Plate 1 (% conversion): 32.72%; Plate 1 (% inhibition): 9.38%
C[C@H]1C[C@H]2[C@@H]3CCC4=CC(=O)C=C[C@]4(C)[C@@]3(Cl)[C@@H](O)C[C@]2(C)[C@@]1(O)C(=O)CO [Beclomethasone]	-10.42	39.37	–
c1ccc2cc(-c3ncc[nH]3)ccc2c1 [Benazoline oxalate]	77.21	9.94	–
Cl.Cn1c(CCCC(=O)O)nc2cc(N(CCCl)CCCl)ccc21 [Bendamustine hydrochloride]	–	–	Plate 2 (% conversion): 39.38%; Plate 2 (% inhibition) (20 µM): -10.22%

SMILES	Plate 1 (% inhibition) [1] [%]	Plate 1 (% conversion) [2] [%]	further results
COc1cccc(OC)c1OCCNCC1CSc2ccccc2O1 (centres unmarked) [Benoxathian hydrochloride]	-17.92	41.89	–
NC(=O)c1ccccc1 [Benzamide]	-4.66	37.44	–
N=C(N)c1ccccc1 [Benzamidine hydrochloride]	-1.42	36.35	–
NC(=NCc1ccccc1)NC(=O)c1nc(Cl)c(N)nc1N [Benzamil hydrochloride]	8.35	33.07	–
CN1[C@@H]2CC[C@H]1C[C@@H](OC(c1ccccc1)c1ccccc1)C2 [Benztropine mesylate]	-9.74	39.14	–
CC(C)COCC(CN(Cc1ccccc1)c1ccccc1)N1CCCC1 (centres unmarked) [Bepridil hydrochloride]	94.47	4.14	–
CC(C)C[C@H](NC(=O)[C@@H](O)[C@H](N)Cc1ccccc1)C(=O)O [Bestatin hydrochloride]	-4.72	37.46	–
C[N+](C)(C)CC=O [Betaine aldehyde chloride]	-3.10	36.91	–
C[N+](C)(C)CC(=O)O [Betaine hydrochloride]	-4.44	37.36	–
C[C@H]1C[C@H]2[C@@H]3CCC4=CC(=O)C=C[C@]4(C)[C@@]3(F)[C@@H](O)C[C@]2(C)[C@@]1(O)C(=O)CO [Betamethasone]	-5.12	37.59	–
CC(C)NCC(O)COc1ccc(CCOCC2CC2)cc1 (centres unmarked) [Betaxolol hydrochloride]	-3.28	36.97	–
CC(C[N+](C)(C)C)OC(N)=O (centres unmarked) [Bethanechol chloride]	-8.85	38.85	–
C=C(c1ccc(C(=O)O)cc1)c1cc2c(cc1C)C(C)(C)CCC2(C)C [Bexarotene]	–	–	Plate 2 (% conversion) (LOPAC compound at 20uM, plate 2, conversion of substrate peptide): 33.95%; inhibition at 20 µM (LOPAC compound at 20uM, plate 2, normalised to DMSO and 2,4-PDCA controls, read-out: Plate 2 (% inhibition)): 6%
CC(O)(CS(=O)(=O)c1ccc(F)cc1)C(=O)Nc1ccc(C#N)c(C(F)(F)F)c1 (centres unmarked) [Bicalutamide (CDX)]	–	–	% conversion [3]: 24.70%
OC(CCN1CCCCC1)(c1ccccc1)C1CC2C=CC1C2 (centres unmarked) [Biperiden hydrochloride]	-10.34	39.34	–
O=C(/C=C/c1ccc(O)cc1)CC(=O)/C=C/c1ccc(O)cc1 [Bisdemethoxycurcumin, reference compound]	–	–	inhibition at 20 µM (AspH activity, fixed compound concentration 20 μM, initial LOPAC screen, 0.5%v/v DMSO, read-out: Inhibition at 20 µM [%]): 99.7%
COc1cc(Nc2c(C#N)cnc3cc(OCCCN4CCN(C)CC4)c(OC)cc23)c(Cl)cc1Cl [Bosutinib]	-79.17	62.46	Plate 5 (% inhibition): -77.35%; Plate 5 (% conversion): 62.64%
Cc1c(-c2ccc(-c3ccccc3F)cc2)nc2ccc(F)cc2c1C(=O)[O-].[Na+] [Brequinar sodium salt hydrate]	11.82	31.90	–
CCN[C@H]1CN(CCCOC)S(=O)(=O)c2sc(S(N)(=O)=O)cc21 [Brinzolamide]	–	–	% conversion [3]: 38.63%; inhibition at 20 µM (LOPAC Plate 4, compound at 20 uM, read-out: % inhibition): -6.32%
C=CCc1ccccc1OCC(O)CNC1(C)CCC(C(C)(C)NC(=O)CBr)CC1 (centres unmarked) [Bromoacetyl alprenolol menthane]	–	–	Plate 1 (% conversion): 65.73%; Plate 1 (% inhibition): -88.92%
C[N+](C)(C)CCOC(=O)CBr.[Br-] [Bromoacetylcholine bromide]	–	–	Plate 1 (% conversion): 36.25%; Plate 1 (% inhibition): -1.12%
CCCC1O[C@@H]2C[C@H]3[C@@H]4CCC5=CC(=O)C=C[C@]5(C)[C@H]4[C@@H](O)C[C@]3(C)[C@]2(C(=O)CO)O1 (some centres unmarked) [Budesonide]	-13.14	40.29	–
CCCCNc1cc(C(=O)O)cc(S(N)(=O)=O)c1Oc1ccccc1 [Bumetanide]	3.08	34.84	–
CC(NC(C)(C)C)C(=O)c1cccc(Cl)c1 (centres unmarked) [Bupropion hydrochloride]	–	–	Plate 1 (% conversion): 38.01%; Plate 1 (% inhibition): -6.38%
O=C1CC2(CCCC2)CC(=O)N1CCCCN1CCN(c2ncccn2)CC1 [Buspirone hydrochloride]	-13.49	–	Plate 1 (% conversion): 40.40%
